# Measured values from patent US12473262B2, “Aryl hydrocarbon receptor activators” (Oregon State University, priority 2019, dated 2025).
# pIC50: −log10 of the molar value.
# Key:
# CYP-2B6 = CYP-2B6 (Homo sapiens (Human), UniProt P20813); test: CYP panel profile: P450 inhibition, CYP-2B6; type: in vitro ADME; conditions: human liver microsomes
# Method: (§1) 5. CYP Panel Profile: P450 Inhibition
# (§2) From 10 mM stock solutions of test compounds, a dilution plate was prepared diluting serially starting from 5 mM up to 2 μM in Acetonitrile/DMSO or Methanol/DMSO Human liver Microsomes were added at required concentration as per specific CYP isoform in a deep well assay plate (1A2, 2C9, 2D6, 2B6, 2C8, 2C19, and 3A4). Compounds were spiked in all wells from dilution plate at final concentrations starting from 50 μM up to 0.02 μM, except for positive and negative control. Specific substrate were added to all wells and reactions were pre-incubated for 10 min. To start reactions, NADPH was added to all wells at 1 mM final concentration. Assay plate was mixed by vortexing and incubated at 37° C. for […] for 3A4.20 min for (1A2, 2C9, 2B6, 2C8, 2D6) and […] for 2C19. A quencher with chilled acetonitrile suitable internal standard was added. Samples were centrifuged and supernatants were collected and subjected to LC-MS/MS analysis for determination.
# [1] = Liver microsomal stability, mouse; conditions: for Rem @ MLM × 30 min: mouse liver microsomes, 1 μM compound, 0.5 mg/ml protein; for half-life at 1 μM / microsomal CLint at 1 μM: mouse, liver microsomes, pH 7.4
# Method: (§3) The assessment of metabolic stability of testing compounds was performed using human, mouse, rat, dog and monkey liver microsomes (20 mg protein/ml). Each reaction mixture contained 42.5 μL of 0.1 M potassium phosphate buffer pH 7.4, containing respective LM protein (final concentration 0.5 mg/ml). 2.5 μL of the compound stock solution was added in it (1 μM final concentration). The reaction was initiated by the addition of 5 μL NADPH solution (final Concentration 1 mM). At different time points (0, 5, 15, and 30 minutes), samples were quenched with 200 μL of cold acetonitrile containing ISTD Propranolol. Samples were centrifuged at 3500 rpm for 20 mM at 4° C. Supernatant was subjected to LC-MS/MS analysis for quantification. Verapamil was used as a positive control.
# CYP-2C19 = CYP-2C19 (Homo sapiens (Human), UniProt P33261); test: CYP panel profile: P450 inhibition, CYP-2C19; type: in vitro ADME; conditions: human liver microsomes
# Method: as §1, §2
# CYP-2C9 = CYP-2C9 (Homo sapiens (Human), UniProt P11712); test: CYP panel profile: P450 inhibition, CYP-2C9; type: in vitro ADME; conditions: human liver microsomes
# CYP-2C9, sequence (P11712 whole entry): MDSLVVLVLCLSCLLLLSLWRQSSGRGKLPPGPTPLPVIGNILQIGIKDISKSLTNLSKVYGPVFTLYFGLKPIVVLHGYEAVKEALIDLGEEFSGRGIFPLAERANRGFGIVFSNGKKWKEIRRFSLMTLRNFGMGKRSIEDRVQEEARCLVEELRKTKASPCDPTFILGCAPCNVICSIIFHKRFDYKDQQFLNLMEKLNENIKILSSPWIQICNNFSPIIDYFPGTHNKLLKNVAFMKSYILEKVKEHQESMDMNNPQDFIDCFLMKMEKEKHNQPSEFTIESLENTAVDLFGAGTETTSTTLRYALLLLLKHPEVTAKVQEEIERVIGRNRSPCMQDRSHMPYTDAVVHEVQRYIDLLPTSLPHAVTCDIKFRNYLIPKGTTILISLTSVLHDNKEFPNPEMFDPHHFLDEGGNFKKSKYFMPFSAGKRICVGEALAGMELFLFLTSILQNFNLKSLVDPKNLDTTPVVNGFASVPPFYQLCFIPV
# Method: as §1, §2
# CYP-3A4 = CYP-3A4 (Homo sapiens (Human), UniProt P08684); test: CYP panel profile: P450 inhibition, CYP-3A4; type: in vitro ADME; conditions: human liver microsomes
# CYP-3A4, sequence (P08684 whole entry): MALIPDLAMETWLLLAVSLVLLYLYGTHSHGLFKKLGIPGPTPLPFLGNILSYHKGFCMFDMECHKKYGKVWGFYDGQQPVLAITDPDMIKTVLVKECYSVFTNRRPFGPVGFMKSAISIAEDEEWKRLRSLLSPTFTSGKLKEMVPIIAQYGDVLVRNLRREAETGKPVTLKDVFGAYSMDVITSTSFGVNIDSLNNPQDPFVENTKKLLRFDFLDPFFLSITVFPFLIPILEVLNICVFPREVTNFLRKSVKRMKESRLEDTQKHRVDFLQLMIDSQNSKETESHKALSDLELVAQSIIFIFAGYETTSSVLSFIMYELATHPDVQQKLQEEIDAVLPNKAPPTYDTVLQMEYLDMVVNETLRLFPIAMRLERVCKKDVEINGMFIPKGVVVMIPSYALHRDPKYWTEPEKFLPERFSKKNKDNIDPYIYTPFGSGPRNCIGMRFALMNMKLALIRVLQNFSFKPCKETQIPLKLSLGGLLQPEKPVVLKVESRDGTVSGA
# Method: as §1, §2
# [2] = biological target: aryl hydrocarbon receptor (AhR) (Mus musculus (Mouse), UniProt P30561); test: AhR ligand screening: AhRE-luciferase reporter in transfected Hepa1 cells; type: cell-based; conditions: for Fold @ 1 nM: fold change of luciferase expression at 1 nM test compound relative to vehicle (0.1% DMSO); for Fold @ 100 nM: fold change of luciferase expression at 100 nM test compound relative to vehicle (0.1% DMSO); for Fold @ 10 uM: fold change of luciferase expression at 10 uM test compound relative to vehicle (0.1% DMSO); for Fold relative to benchmark @ 100 nM: luciferase expression at 100 nM test compound relative to 100 nM benchmark compound 11-cl-BBQ
# aryl hydrocarbon receptor (AhR), sequence (P30561 10-805): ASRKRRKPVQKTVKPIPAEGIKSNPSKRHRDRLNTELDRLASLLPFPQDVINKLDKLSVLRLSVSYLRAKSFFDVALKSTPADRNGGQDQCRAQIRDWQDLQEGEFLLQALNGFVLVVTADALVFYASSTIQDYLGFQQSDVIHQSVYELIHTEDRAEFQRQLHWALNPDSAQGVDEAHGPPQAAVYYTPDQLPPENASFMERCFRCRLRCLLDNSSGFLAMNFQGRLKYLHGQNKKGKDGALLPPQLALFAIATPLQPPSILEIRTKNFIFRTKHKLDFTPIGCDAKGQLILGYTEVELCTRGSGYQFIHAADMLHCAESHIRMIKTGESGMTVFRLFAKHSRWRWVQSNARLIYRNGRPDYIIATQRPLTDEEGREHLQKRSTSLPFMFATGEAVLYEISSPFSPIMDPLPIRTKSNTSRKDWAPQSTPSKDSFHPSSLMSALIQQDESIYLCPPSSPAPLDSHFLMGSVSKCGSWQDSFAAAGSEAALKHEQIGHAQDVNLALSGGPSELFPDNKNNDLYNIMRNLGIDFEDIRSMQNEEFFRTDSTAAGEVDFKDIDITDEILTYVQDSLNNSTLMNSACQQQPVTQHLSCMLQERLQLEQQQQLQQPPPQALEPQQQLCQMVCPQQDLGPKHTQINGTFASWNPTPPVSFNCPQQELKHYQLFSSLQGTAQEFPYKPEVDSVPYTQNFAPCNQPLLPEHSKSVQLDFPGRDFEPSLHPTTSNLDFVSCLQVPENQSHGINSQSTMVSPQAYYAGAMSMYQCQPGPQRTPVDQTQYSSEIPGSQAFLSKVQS
# aryl hydrocarbon receptor (AhR), sequence (P53762 whole entry partner): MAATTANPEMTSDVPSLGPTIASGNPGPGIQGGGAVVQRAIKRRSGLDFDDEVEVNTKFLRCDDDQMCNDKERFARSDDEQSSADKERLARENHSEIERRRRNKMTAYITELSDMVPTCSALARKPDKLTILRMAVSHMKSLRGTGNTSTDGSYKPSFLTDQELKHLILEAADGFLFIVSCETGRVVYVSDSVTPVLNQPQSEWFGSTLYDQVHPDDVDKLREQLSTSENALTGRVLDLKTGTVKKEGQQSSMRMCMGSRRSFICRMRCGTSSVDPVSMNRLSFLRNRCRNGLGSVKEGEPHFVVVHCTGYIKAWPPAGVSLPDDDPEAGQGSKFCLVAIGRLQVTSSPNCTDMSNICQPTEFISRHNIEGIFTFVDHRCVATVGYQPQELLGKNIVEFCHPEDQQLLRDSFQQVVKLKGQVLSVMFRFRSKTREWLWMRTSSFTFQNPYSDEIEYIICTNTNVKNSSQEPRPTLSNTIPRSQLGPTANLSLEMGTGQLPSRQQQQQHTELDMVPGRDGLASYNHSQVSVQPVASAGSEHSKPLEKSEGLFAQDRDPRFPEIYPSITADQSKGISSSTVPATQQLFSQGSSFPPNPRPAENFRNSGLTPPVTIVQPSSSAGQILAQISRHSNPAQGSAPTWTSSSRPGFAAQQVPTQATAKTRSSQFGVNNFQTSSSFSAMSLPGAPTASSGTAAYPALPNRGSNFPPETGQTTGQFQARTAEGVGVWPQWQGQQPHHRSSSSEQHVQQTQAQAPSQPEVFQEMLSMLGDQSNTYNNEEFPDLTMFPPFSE
# Procedure, shortened: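 Values are fold luciferase induction relative to vehicle (0.1% DMSO), read by luminometry of lysates from Hepa1 cells carrying an AhRE-driven luciferase reporter. Cells were seeded at 1×10^4 per well, grown overnight and treated with compound before lysis.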
# [3] = Liver microsomal stability, human; conditions: for Rem @ HLM × 30 min: human liver microsomes, 1 μM compound, 0.5 mg/ml protein; for half-life at 1 μM / microsomal CLint at 1 μM: human, liver microsomes, pH 7.4
# Method: as §3
# CYP-2D6 = CYP-2D6 (Homo sapiens (Human), UniProt P10635); test: CYP panel profile: P450 inhibition, CYP-2D6; type: in vitro ADME; conditions: human liver microsomes
# CYP-2D6, sequence (P10635 whole entry): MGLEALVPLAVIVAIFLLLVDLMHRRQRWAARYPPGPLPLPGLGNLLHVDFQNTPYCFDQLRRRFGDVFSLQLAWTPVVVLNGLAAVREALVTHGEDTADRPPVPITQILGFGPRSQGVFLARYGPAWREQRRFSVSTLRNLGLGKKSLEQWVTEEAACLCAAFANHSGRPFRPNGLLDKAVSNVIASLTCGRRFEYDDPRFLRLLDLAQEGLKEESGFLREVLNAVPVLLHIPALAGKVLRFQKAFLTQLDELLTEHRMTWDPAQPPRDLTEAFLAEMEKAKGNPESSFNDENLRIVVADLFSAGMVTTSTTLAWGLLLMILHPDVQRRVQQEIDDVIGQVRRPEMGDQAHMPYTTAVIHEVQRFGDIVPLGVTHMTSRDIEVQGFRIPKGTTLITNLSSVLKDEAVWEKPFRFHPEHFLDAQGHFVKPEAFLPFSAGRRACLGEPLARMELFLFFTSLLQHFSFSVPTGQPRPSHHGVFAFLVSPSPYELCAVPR
# Method: as §1, §2
# CYP-2C8 = CYP-2C8 (Homo sapiens (Human), UniProt P10632); test: CYP panel profile: P450 inhibition, CYP-2C8; type: in vitro ADME; conditions: human liver microsomes
# CYP-2C8, sequence (P10632 whole entry): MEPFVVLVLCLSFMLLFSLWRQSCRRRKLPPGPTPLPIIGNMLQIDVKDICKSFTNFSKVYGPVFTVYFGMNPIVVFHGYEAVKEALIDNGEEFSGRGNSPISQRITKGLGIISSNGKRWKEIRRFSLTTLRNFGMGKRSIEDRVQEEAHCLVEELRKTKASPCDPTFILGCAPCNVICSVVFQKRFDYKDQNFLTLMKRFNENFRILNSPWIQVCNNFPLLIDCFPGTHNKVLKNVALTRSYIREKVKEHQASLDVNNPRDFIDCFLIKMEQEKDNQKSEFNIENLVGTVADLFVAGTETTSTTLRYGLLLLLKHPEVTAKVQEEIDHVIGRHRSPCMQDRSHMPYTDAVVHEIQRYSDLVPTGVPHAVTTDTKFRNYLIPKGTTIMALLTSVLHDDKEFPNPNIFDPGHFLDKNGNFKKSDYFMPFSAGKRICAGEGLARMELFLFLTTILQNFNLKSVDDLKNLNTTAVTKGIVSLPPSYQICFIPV
# Method: as §1, §2
# [4] = Liver microsomal stability, rat; conditions: for Rem @ RLM × 30 min: rat liver microsomes, 1 μM compound, 0.5 mg/ml protein; for half-life at 1 μM / microsomal CLint at 1 μM: rat, liver microsomes, pH 7.4
# Method: as §3
# CYP-1A2 = CYP-1A2 (Homo sapiens (Human), UniProt P05177); test: CYP panel profile: P450 inhibition, CYP-1A2; type: in vitro ADME; conditions: human liver microsomes; read-out: CYP-1A2 IC50
# CYP-1A2, sequence (P05177 whole entry): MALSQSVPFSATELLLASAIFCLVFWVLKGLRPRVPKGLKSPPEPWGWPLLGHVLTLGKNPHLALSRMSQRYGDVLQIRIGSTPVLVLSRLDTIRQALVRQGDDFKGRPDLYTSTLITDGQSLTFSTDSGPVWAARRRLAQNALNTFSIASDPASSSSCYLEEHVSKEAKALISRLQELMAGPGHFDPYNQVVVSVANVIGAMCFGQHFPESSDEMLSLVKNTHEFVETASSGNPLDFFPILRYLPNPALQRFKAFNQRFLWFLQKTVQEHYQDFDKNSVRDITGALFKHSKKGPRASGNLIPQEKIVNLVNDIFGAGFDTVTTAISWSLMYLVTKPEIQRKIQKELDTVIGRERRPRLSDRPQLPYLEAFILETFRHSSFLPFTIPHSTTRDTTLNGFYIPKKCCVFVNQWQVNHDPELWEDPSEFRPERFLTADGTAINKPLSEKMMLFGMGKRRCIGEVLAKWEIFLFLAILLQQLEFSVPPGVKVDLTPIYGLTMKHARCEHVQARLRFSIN
# Method: as §1, §2
# CYP-2B6, sequence (P20813 whole entry): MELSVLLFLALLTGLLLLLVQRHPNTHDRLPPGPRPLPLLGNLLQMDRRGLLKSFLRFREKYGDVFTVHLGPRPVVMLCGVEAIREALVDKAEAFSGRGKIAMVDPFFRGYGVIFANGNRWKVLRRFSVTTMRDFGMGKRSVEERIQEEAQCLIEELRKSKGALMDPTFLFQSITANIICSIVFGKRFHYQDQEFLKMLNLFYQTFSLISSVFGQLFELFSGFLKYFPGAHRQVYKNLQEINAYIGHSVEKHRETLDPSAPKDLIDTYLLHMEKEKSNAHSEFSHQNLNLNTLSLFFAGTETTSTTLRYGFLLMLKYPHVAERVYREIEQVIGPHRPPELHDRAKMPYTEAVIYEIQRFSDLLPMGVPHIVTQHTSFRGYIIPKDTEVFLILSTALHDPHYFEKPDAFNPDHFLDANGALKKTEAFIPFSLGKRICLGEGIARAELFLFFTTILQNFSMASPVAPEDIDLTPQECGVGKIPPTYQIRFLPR
Compound,pIC50 (CYP-2B6),Rem @ MLM × 30 min [1] [%],half-life at 1 μM [1] [min],microsomal CLint at 1 μM [1] [µL/min/mg],pIC50 (CYP-2C19),pIC50 (CYP-2C9),pIC50 (CYP-3A4),Fold @ 1 nM [2] [fold],Fold @ 100 nM [2] [fold],Fold @ 10 uM [2] [fold],Fold relative to benchmark @ 100 nM [2] [fold],Rem @ HLM × 30 min [3] [%],half-life at 1 μM [3] [min],microsomal CLint at 1 μM [3] [µL/min/mg],pIC50 (CYP-2D6),pIC50 (CYP-2C8),Rem @ RLM × 30 min [4] [%],half-life at 1 μM [4] [min],microsomal CLint at 1 μM [4] [µL/min/mg],pIC50 (CYP-1A2)
O=C(c1ccc(F)c(F)c1)n1c(-c2ccc(-c3ccccc3)cc2)nc2ccc(Cl)cc21 [Compound 644],< 4.30,71.7,70.5,20,< 4.30,5.57,< 4.30,1,1,2,0.11,69.8,77.9,18,5.09,5.77,36.8,28.7,48,5.33
O=C(c1ccc(F)c(F)c1)n1c(-c2cccc3ccccc23)nc2cc(Cl)ccc21 [Compound 529],5.02,,,,5.44,5.46,5.92,2,41,52,1.03,,,,< 4.30,5.02,,,,6.22
O=C(C1CC1)n1c(-c2cccc3ccccc23)cc2cc(Cl)ccc21 [Compound 972],5.37,26.7,15.9,87.1,6.70,5.15,< 4.30,1,2,45,0.04,73.0,74.9,18.5,< 4.30,< 4.31,20.7,13.3,105,5.15
O=C(c1ccccc1)n1c(-c2cccc3ccccc23)nc2ccc(Cl)cc21 [Compound 495],4.71,,,,5.85,5.25,5.28,2.3,25,59,0.81,,,,4.49,5.72,,,,6.52
O=C(c1ccc(F)c(F)c1)n1c(-c2cccc3ccccc23)nc2cc(Cl)ccc21 [Compound 530],5.03,,,,5.47,5.30,5.43,2,39,56,0.98,,,,< 4.30,5.03,,,,6.30
O=C(C1CCCCC1)n1c(-c2cccc3ccccc23)nc2ccc(Cl)cc21 [Compound 640],4.51,,,,5.62,5.35,5.42,1,10,15,1.21,,,,4.54,5.64,,,,6.22
O=C(c1c(F)cc(Br)cc1F)n1c(-c2cccc3ccccc23)nc2cc(Cl)ccc21 [Compound 638],4.94,,,,5.47,5.28,5.09,1,12,20,1.17,,,,4.84,5.74,,,,6.52
COC(=O)c1ccc2nc(-c3cccc4ccccc34)n(C(=O)c3ccc(F)c(F)c3)c2c1 [Compound 849],< 4.32,,,,5.82,5.11,< 4.30,1,1,1,0.04,,,,4.71,5.39,,,,4.82
"COc1ccc(C(=O)n2c(-c3cccc4ccccc34)nc3cc(Cl)ccc32)cc1 [Compound 535, (5-chloro-2-(naphthalen-1-yl)-1H-benzo[d]imidazol-1-yl)(4-methoxyphenyl)methanone]",4.67,,,,5.68,5.60,6.70,1,38,44,0.95,,,,< 4.30,4.66,,,,5.41
O=C(c1ccc(F)c(F)c1)n1c(-c2ccc(-c3ccccc3)cc2)nc2cc(Cl)ccc21 [Compound 643],< 4.30,,,,< 4.30,5.04,< 4.30,1,1,2,0.11,,,,< 4.30,4.91,,,,4.68
O=C(c1ccccc1)n1c(-c2cccc3ccccc23)nc2cc(Cl)ccc21 [Compound 494],< 4.35,,,,5.28,5.38,5.92,1,29,43,0.94,,,,< 4.30,5.60,,,,6.15
O=C(c1ccccc1)n1c(-c2cccc3ccccc23)nc2cc(Cl)c(Cl)cc21 [Compound 693],< 4.30,,,,4.62,4.94,5.70,2,32,87,1.23,,,,< 4.30,5.46,,,,5.07
